Data set [1] has as its system Cryptococcus neoformans. The experiment in a line: organism not typed. The note with it: 72 h, 37°C, three independent experiments. The procedure: (§1) The MIC of the peptide was determined using a standardized micro-broth dilution method with a panel of pathogenic yeast strains (C. albicans, […], C. neoformans, and C. gattii) and bacterial strains (Escherichia coli, Micrococcus luteus, Staphylococcus aureus, and Pseudomonas aeruginosa).
(§2) The value of the MIC was defined as the lowest concentration of drugs showing no yeast growth. The MIC was determined by three independent repeats, each repeat in quintuplicate.

Data set [2] deals with Aspergillus fumigatus. The experiment in a line: MIC, micro-broth dilution (CLSI M27-A4). The data set is classed as cell-based. The note with it: Aspergillus fumigatus (YJ407), laboratory stock; three independent experiments. The procedure:
as §1, §2
For orientation: Dilution methods test growth across graded concentrations, often in twofold steps.

Data set [3] relates to ergosterol in the cell membrane of C. neoformans (H99) cells. The data set can be described thus: Filipin III staining of membrane ergosterol. It is filed as cell-based, Cryptococcus neoformans. The note with it: 1 h. An excerpt:
All fluorescent images were collected with the confocal microscope (Olympus IX81) at a magnification of ×100 (oil immersion). […] Images were taken using the same confocal microscope described above. […] The fluorescent images of mitochondria were acquired on the confocal microscope (Leica SP8). At least 200 cells per sample were categorized based on their tubular or fragmented mitochondria morphologies. To quantify the fluorescent staining of ergosterol by filipin III, H99 cells with different treatment were stained by filipin III as described ([37]). The fluorescent images were acquired by the IX81 confocal microscope described above. The ImageJ was used to measure the mean fluorescent intensity. The statistical analysis of fluorescent intensity was based on three independent experiments. In each experiment, at least 100 cells were counted in three different visual fields.

Data set [4] is described as follows: Calcein leakage assay, fungal membrane mimic. The note with it: 4 μM; Tris buffer pH 7.4; fluorescence 10 min after addition; 100% = Triton X-100; three independent experiments. The procedure:
These experiments were performed as previously described ([34]). Briefly, phospholipid vesicles were prepared from POPC: POPE (at a ratio of 1:4), POPC/POPE/Erg (at a ratio of 5:4:3), and POPC with 40% cholesterol, which mimics the cell membranes of bacterial, fungal, and mammalian cells, respectively. The resulting lipid film was suspended in Tris buffer (20 mM Tris, 100 mM NaCl, and 40 mM calcein, pH 7.4). Extravehicular buffer containing lipid vesicles with entrapped calcein was read in a fluorimeter using excitation at 490 nm and emission at 520 nm. […] The 10% Triton X-100 was used to disrupt lipid vesicles for obtaining the maximum fluorescence intensity.

Data set [5] relates to C. neoformans H99 cells. The experiment in a line: Time-killing experiment (killing kinetics). The data set is classed as cell-based, Cryptococcus neoformans. The note with it: 2.5 μM (MIC of melittin), over 4 h, 37°C, RPMI 1640, CFU counting; three independent experiments.
Procedure: The time-killing experiment was performed as described ([17]). C. neoformans H99 cells were cultured in RPMI 1640 medium overnight, and the concentration was adjusted to 3 × 10^7 colony-forming units (CFU)/mL. […] Aliquots were taken out to wash and serially diluted 1:10 in RPMI 1640 medium to final concentration of nearly 300 CFU/mL, and plate on the YPD medium at the corresponding time points. After incubating at 37°C for 48 h, colonies were counted to calculate the survival rate. The percentage of CFU of growth control was set as 100%. The percentage of recovering CFU on plates was plotted against time. The data were obtained from three independent experiments.
The test system of data set [6] is C. neoformans protoplasts. The data set can be described thus: Protoplast rupture experiment (microscopy). The data set is classed as cell-based, Cryptococcus neoformans. The note with it: 2.5 μM, 2 h; three experiments. An excerpt: Many antimicrobial peptides form pores in cell membranes to kill cells ([38]). […] To test this hypothesis, C. neoformans protoplasts were adopted for cell rupture experiments. Because the cell walls were digested with enzymes, the unprotected protoplasts could be easily ruptured following peptide-induced pore formation within the cell membrane. Moreover, without the structural support of a cell wall, cell rupture could be clearly observed under the microscope.

Data set [7] concerns C. neoformans H99 protoplasts. The data set can be described thus: PI staining of protoplasts, flow cytometry. It is filed as cell-based, Cryptococcus neoformans. The note with it: 2.5 μM, 1 h; around 30,000 protoplasts per treatment; three independent experiments. As for the experimental part:
(§3) H99 cells were cultured in RPMI 1640 medium (Sigma, Shanghai) with 0.165 M MOPS (Sigma, Shanghai) overnight and diluted in fresh medium to an OD600 of 1. For the Annexin V-PI assay, the yeast protoplast preparation kit (BestBio, Shanghai) was used to prepare the protoplasts. […] The TUNEL assay was performed by using the Apoptosis Detection Kit (Yeasen, Shanghai) according to the manufacturer’s instructions. For JC-10 staining, H99 cells were stained by 30 μM JC-10 (Yeasen, Shanghai) and 0.02% Pluronic F-127(Beyotime, Shanghai) at 37°C for 30 min. The intracellular ROS was stained by the incubation with 5 μM H2DCFDA(MCE, Shanghai) at 37°C for 30 min. The stained samples were measured by BD FACSCalibur as described ([58]). The data were analyzed by FlowjoX. All experiments were repeated three times independently.

In data set [8] the test system is C. neoformans H99 protoplasts. The experiment in a line: Annexin V staining (phosphatidylserine exposure), flow cytometry. The data set is classed as cell-based, Cryptococcus neoformans. The note with it: 2.5 μM, 1 h; three independent experiments. As for the experimental part: as §3
(In general: In flow cytometry, cells or beads pass a laser one at a time.)

Data set [9] relates to C. neoformans H99 cells. The data set can be described thus: JC-10 mitochondrial membrane potential assay. The data set is classed as cell-based, Cryptococcus neoformans. The note with it: 8 μM, 37°C, 2 h; JC-10, flow cytometry; three experiments. As for the experimental part: as §3
Where [10] appears, read: strain JEC21, RPMI 1640 + 0.165 M MOPS, lowest concentration showing no yeast growth.
[11] abbreviates: Cryptococcus neoformans, fzc9Δ, FLC-resistant strain derived from H99, RPMI 1640 + 0.165 M MOPS.
The mark [12] stands for this setting: Cryptococcus neoformans, gat5Δ, FLC-resistant strain derived from H99, RPMI 1640 + 0.165 M MOPS.
The mark [13] stands for this setting: Cryptococcus neoformans, liv4Δ, FLC-resistant strain derived from H99, RPMI 1640 + 0.165 M MOPS.

Where “and” joins values, the source holds several entries; their conditions need not be identical. Identical values can stand only once.

`C[C@@H]1[C@H](O)[C@@H](C)/C=C/C=C/C=C/C=C/C=C/C=C/C=C/[C@H](O[C@@H]2O[C@H](C)[C@@H](O)[C@H](N)[C@@H]2O)C[C@@H]2O[C@](O)(C[C@@H](O)C[C@@H](O)[C@H](O)CC[C@@H](O)C[C@@H](O)CC(=O)O[C@H]1C)C[C@H](O)[C@H]2C(=O)O` [AmB, amphotericin B]: the MIC in data set [1] (setting [10]) is 0.4 µM; in data set [1] (Cryptococcus neoformans, atf1Δ, AmB-resistant strain derived from H99, RPMI 1640 + 0.165 M MOPS), > 2.2 µM; in data set [1] (setting [11]), 1.1 µM and 1 µg/mL; in [1] (Cryptococcus neoformans, fzc51Δ, AmB-resistant strain derived from H99, RPMI 1640 + 0.165 M MOPS) it was > 2.2 µM and > 2 µg/mL; in [1] (setting [12]) it was 1.1 µM and 1 µg/mL; in data set [1] (setting [13]), 1.1 µM and 1 µg/mL. The MIC is 1.1 µM and 1 µg/mL in data set [1] (Cryptococcus neoformans, strain H99, RPMI 1640 + 0.165 M MOPS); > 2 µg/mL in [1] (atf1Δ, AmB-resistant strain derived from H99, RPMI 1640 + 0.165 M MOPS); 0.4 µM and 0.37 µg/mL in [2]. In data set [3] (1.1 μM), the “filipin III signal” value is “a decreased level of filipin III signal”.
For `OC(Cn1cncn1)(Cn1cncn1)c1ccc(F)cc1F` [FLC, fluconazole], the MIC in data set [1] (setting [10]) is 6.5 µM; in [1] (setting [11]), > 26 µM; in [1] (setting [12]) it was > 26 µM; in data set [1] (setting [13]), > 26 µM; in [1] (fzc9Δ, FLC-resistant strain derived from H99, RPMI 1640 + 0.165 M MOPS), > 8 µg/mL; in [1] (gat5Δ, FLC-resistant strain derived from H99, RPMI 1640 + 0.165 M MOPS) it was > 8 µg/mL. Further, the MIC in data set [1] (liv4Δ, FLC-resistant strain derived from H99, RPMI 1640 + 0.165 M MOPS) was > 8 µg/mL. Further, in data set [4], the calcein leakage entry is on record as “did not induce calcein leakage”.
Consider `CC[C@H](C)[C@H](NC(=O)CN)C(=O)NCC(=O)N[C@@H](C)C(=O)N[C@H](C(=O)N[C@@H](CC(C)C)C(=O)N[C@@H](CCCCN)C(=O)N[C@H](C(=O)N[C@@H](CC(C)C)C(=O)N[C@H](C(=O)N[C@H](C(=O)NCC(=O)N[C@@H](CC(C)C)C(=O)N1CCC[C@H]1C(=O)N[C@@H](C)C(=O)N[C@@H](CC(C)C)C(=O)N[C@H](C(=O)N[C@@H](CO)C(=O)N[C@@H](Cc1c[nH]c2ccccc12)C(=O)N[C@H](C(=O)N[C@@H](CCCCN)C(=O)N[C@@H](CCCNC(=N)N)C(=O)N[C@@H](CCCCN)C(=O)N[C@@H](CCCNC(=N)N)C(=O)N[C@@H](CCC(N)=O)C(=O)N[C@@H](CCC(N)=O)C(N)=O)[C@@H](C)CC)[C@@H](C)CC)[C@@H](C)O)[C@@H](C)O)C(C)C)C(C)C` [melittin], for which the MIC in [1] (strain H99, RPMI 1640 + 0.165 M MOPS) was 2.5 μM and 7.12 μg/mL. The cells killed in data set [5] was ~70%. For the same compound, in data set [6], the protoplasts ruptured is listed as ~80%. For the same compound, the PI-positive protoplasts in [7] is listed as ~70%. For the same compound, the “phosphatidylserine exposure (annexin V)” value in data set [8] was “almost no phosphatidylserine exposure”.
Turning to `C[C@@H]1C/C=C/C=C/C=C/C=C/[C@H](O[C@@H]2O[C@H](C)[C@@H](O)[C@H](N)[C@@H]2O)C[C@@H]2O[C@](O)(C[C@@H](O)C[C@H]3O[C@@H]3/C=C/C(=O)O1)C[C@H](O)[C@H]2C(=O)O` [natamycin], the “filipin III signal” value in [3] (15 μM) is listed as “a decreased level of filipin III signal”.
As to “IRIAINGFGRIGRPPPRPPPQRKDIEVVA [control peptide]”, in [4], the calcein leakage result is “did not induce calcein leakage”. In data set [9], the “cells that lost their mitochondrial membrane potential” value was ~5%.

The values above are taken from publication PMC8754130, “A Peptide from Budding Yeast GAPDH Serves as a Promising Antifungal against Cryptococcus neoformans” (Microbiology Spectrum, 2022).
